Measured values published in US20260201008A1, “SECRETIN-DERIVED GLP1R SELECTIVE AGONISTS” (GUBRA A/S, priority 2023, published 2026).
Read-outs that look alike come from different tables or passages of the source. Numbered stars: 1 amine (or outer) side, 2 acyl side, 3 side chain; on linkers, the order of the positions; unused ones are H or OH. Square brackets hold non-standard residues; d marks the D form. Side chains are listed from the residue outwards. Peptide text beside a SMILES is read from it. * marks the point of attachment. C20 diacid = O=C(O)CCCCCCCCCCCCCCCCCCC(=O)*; γGlu = O=C(O)[C@H](CCC(=O)[*:2])N[*:1]; AEEA = NCCOCCOCC(=O)O; Aib = CC(C)(N)C(=O)O

Assays:
[1] = Fibril formation of crude library peptides (Thioflavin T); type: physicochemical; set-up: key: average ThT fluorescence emission at 480 nm (ex 450 nm), raw units; conditions: Physical stability of peptides
Method in brief: (§1)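 Crude peptides at 267 μM in 50 mM sodium acetate pH 4.0 or 50 mM sodium phosphate pH 7.0, pre-incubated 1-2 h at room temperature, then 4 μM final ThT added. Turbidity read first as A600. ThT fluorescence (ex 450/em 480 nm) read every 10 min for 72 h at 40° C, with 5 min shaking before each read; fibril formation = average emission.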

[2] = Turbidity of crude library peptides (absorbance at 600 nm); type: physicochemical; conditions: Physical stability of peptides
Method in brief: as §1

GLP1R = GLP1R (Homo sapiens, UniProt P43220); assay: hGLP1R potency, cAMP accumulation in CHO-K1 cells stably overexpressing hGLP1R; type: cell-based; set-up: host or cells: CHO-K1; conditions: for EC50: cAMP accumulation; for SCTR EC50/GLP1R EC50 ratio: cAMP accumulation in CHO-K1 cells; for Selectivity: SCTR EC50/GLP1R EC50 ratio
Chain of GLP1R (P43220 24-463): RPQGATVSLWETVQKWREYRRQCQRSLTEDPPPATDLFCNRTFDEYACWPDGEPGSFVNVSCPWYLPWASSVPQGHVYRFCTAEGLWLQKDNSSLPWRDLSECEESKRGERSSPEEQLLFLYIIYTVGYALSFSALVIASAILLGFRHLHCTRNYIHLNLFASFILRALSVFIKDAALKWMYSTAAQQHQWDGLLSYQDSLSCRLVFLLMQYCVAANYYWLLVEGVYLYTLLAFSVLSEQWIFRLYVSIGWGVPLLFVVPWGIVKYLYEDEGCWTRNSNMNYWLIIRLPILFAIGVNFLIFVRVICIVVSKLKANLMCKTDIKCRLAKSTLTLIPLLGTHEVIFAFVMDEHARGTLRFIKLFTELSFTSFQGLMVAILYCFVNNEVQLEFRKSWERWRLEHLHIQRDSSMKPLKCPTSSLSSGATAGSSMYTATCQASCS
Method in brief: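 CHO-K1 cells stably expressing hGLP1R (2000/well) in DPBS with 0.05% casein and 0.5 mM IBMX were stimulated 30 min at room temperature with graded compound doses; human GLP-1(7-36) served as positive control. cAMP was read by HTRF after 1 h; EC50 came from variable-slope sigmoid fits (purified peptides: 11-point 3-fold, n=2).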

SCTR = SCTR (Homo sapiens, UniProt P47872); assay: hSCTR potency, cAMP accumulation in CHO-K1 cells stably overexpressing hSCTR; type: cell-based; set-up: alternatively Euroscreen ES-712-AF; FAST-0161L; host or cells: CHO-K1; conditions: cAMP accumulation
Chain of SCTR (P47872 23-440): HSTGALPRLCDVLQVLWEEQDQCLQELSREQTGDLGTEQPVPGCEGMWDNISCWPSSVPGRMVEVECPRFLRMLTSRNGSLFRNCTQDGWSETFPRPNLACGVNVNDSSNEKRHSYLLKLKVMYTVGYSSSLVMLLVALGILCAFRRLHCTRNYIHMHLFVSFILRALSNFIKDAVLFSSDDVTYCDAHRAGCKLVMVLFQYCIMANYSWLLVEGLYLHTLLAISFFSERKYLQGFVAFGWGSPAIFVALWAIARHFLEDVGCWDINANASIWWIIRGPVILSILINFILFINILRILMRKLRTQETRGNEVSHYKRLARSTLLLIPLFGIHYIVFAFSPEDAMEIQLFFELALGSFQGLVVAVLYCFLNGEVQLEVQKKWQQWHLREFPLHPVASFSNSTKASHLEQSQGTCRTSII
Method in brief: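 Cells plated at 2000/well in DPBS with 0.05% casein and 0.5 mM IBMX, stimulated 30 min at room temperature with graded compound doses; human secretin as positive control. cAMP read by TR-FRET after 1 h. Purified peptides tested at 11 3-fold dilutions, n=2; EC50 by variable-slope sigmoid fit.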

[3] = CHO-K1 cells overexpressing hGLP1R, read-out: pEC50 hGLPR1 (converted)
[4] = CHO-K1 cells overexpressing hSCTR, read-out: pEC50 hSCTR (converted)
[5] = CHO-K1 cells overexpressing hGLP1R, read-out: hGLP1R pEC50 (converted)
[6] = selectivity for hGLP1R over hSCTR
[7] = CHO-K1 cells overexpressing hSCTR, read-out: hSCTR pEC50 (converted)

| SMILES | Fibril formation [1] | Turbidity (pH 7) [2] | EC50 (GLP1R; CHO-K1 cells stably overexpressing hGLP1R, read-out: hGLP1R potency (pEC50) (converted)) | SCTR EC50/GLP1R EC50 ratio (GLP1R; selectivity ratio, hSCTR vs hGLP1R) | EC50 (SCTR; CHO-K1 cells stably overexpressing hSCTR, read-out: hSCTR potency (pEC50) (converted)) | Selectivity (GLP1R) | EC50 (GLP1R; [3]) | EC50 (SCTR; [4]) | EC50 (GLP1R; [5]) | SCTR EC50/GLP1R EC50 ratio (GLP1R; [6]) | EC50 (SCTR; [7]) |
| --- | --- | --- | --- | --- | --- | --- | --- | --- | --- | --- | --- |
| CC(C)C[C@H](NC(=O)[C@H](Cc1ccccc1)NC(=O)[C@H](CCCNC(=N)N)NC(=O)[C@H](CCC(N)=O)NC(=O)[C@H](CO)NC(=O)[C@H](C)NC(=O)[C@H](C)NC(=O)[C@H](Cc1ccccc1)NC(=O)[C@H](CCC(=O)O)NC(=O)[C@H](CCCCNC(=O)COCCOCCNC(=O)COCCOCCNC(=O)CC[C@H](NC(=O)CCCCCCCCCCCCCCCCCCC(=O)O)C(=O)O)NC(=O)[C@H](CC(C)C)NC(=O)[C@H](CCCNC(=N)N)NC(=O)[C@H](CO)NC(=O)[C@@H](NC(=O)[C@H](CC(=O)O)NC(=O)[C@H](CO)NC(=O)[C@@H](NC(=O)[C@H](Cc1ccccc1)NC(=O)[C@@H](NC(=O)CNC(=O)[C@H](CCC(=O)O)NC(=O)C(C)(C)NC(=O)[C@@H](N)Cc1c[nH]cn1)[C@@H](C)O)[C@@H](C)O)C(C)C)C(=O)N[C@@H](CCC(=O)O)C(=O)N[C@@H](Cc1c[nH]cn1)C(=O)N[C@@H](CC(C)C)C(=O)N[C@H](C(N)=O)C(C)C [compound 52] (H-H[Aib]EGTFTSDVSRLK([AEEA-AEEA-γGlu-C20 diacid])EFAASQRFLEHLV-NH2) | 241858 | 0.08 |  |  |  | 3341 | 0.126 nM | 398 nM |  |  |  |
| CC(C)C[C@H](NC(=O)[C@H](Cc1ccccc1)NC(=O)[C@H](CCCNC(=N)N)NC(=O)[C@H](CCC(N)=O)NC(=O)[C@H](C)NC(=O)[C@H](C)NC(=O)[C@H](C)NC(=O)[C@H](CCC(=O)O)NC(=O)[C@H](CCC(=O)O)NC(=O)[C@H](CCCCNC(=O)COCCOCCNC(=O)COCCOCCNC(=O)CC[C@H](NC(=O)CCCCCCCCCCCCCCCCCCC(=O)O)C(=O)O)NC(=O)[C@H](CC(C)C)NC(=O)[C@@H](NC(=O)[C@H](CO)NC(=O)[C@@H](NC(=O)[C@H](CC(=O)O)NC(=O)[C@H](CO)NC(=O)[C@@H](NC(=O)[C@H](Cc1ccccc1)NC(=O)[C@@H](NC(=O)CNC(=O)[C@H](CCC(=O)O)NC(=O)C(C)(C)NC(=O)[C@@H](N)Cc1c[nH]cn1)[C@@H](C)O)[C@@H](C)O)C(C)C)C(C)C)C(=O)N[C@@H](CCC(=O)O)C(=O)N[C@@H](Cc1c[nH]cn1)C(=O)N[C@@H](CC(C)C)C(=O)N[C@H](C(N)=O)C(C)C [compound 28] (H-H[Aib]EGTFTSDVSVLK([AEEA-AEEA-γGlu-C20 diacid])EEAAAQRFLEHLV-NH2) | 7910 | 0.09 |  |  |  | 55501 | 0.02 nM | 1260 nM |  |  |  |
| CC(C)C[C@H](NC(=O)[C@H](Cc1ccccc1)NC(=O)[C@H](CCCNC(=N)N)NC(=O)[C@H](CCC(N)=O)NC(=O)[C@@H](NC(=O)[C@H](C)NC(=O)[C@H](C)NC(=O)[C@H](CCC(=O)O)NC(=O)[C@H](CCC(=O)O)NC(=O)[C@H](CCCCNC(=O)COCCOCCNC(=O)COCCOCCNC(=O)CC[C@H](NC(=O)CCCCCCCCCCCCCCCCCCC(=O)O)C(=O)O)NC(=O)[C@H](CC(C)C)NC(=O)[C@H](CCCNC(=N)N)NC(=O)[C@H](CO)NC(=O)[C@@H](NC(=O)[C@H](CC(=O)O)NC(=O)[C@H](CO)NC(=O)[C@@H](NC(=O)[C@H](Cc1ccccc1)NC(=O)[C@@H](NC(=O)CNC(=O)[C@H](CCC(=O)O)NC(=O)C(C)(C)NC(=O)[C@@H](N)Cc1c[nH]cn1)[C@@H](C)O)[C@@H](C)O)C(C)C)[C@@H](C)O)C(=O)N[C@@H](CCC(=O)O)C(=O)N[C@@H](Cc1c[nH]cn1)C(=O)N[C@@H](CC(C)C)C(=O)N[C@H](C(N)=O)C(C)C [compound 65] (H-H[Aib]EGTFTSDVSRLK([AEEA-AEEA-γGlu-C20 diacid])EEAATQRFLEHLV-NH2) | 9674 | 0.09 |  |  |  | 6482 | 0.00316 nM | 25.1 nM |  |  |  |
| CC(C)C[C@H](NC(=O)[C@H](Cc1ccccc1)NC(=O)[C@H](CCCNC(=N)N)NC(=O)[C@H](CCC(N)=O)NC(=O)[C@@H](NC(=O)[C@H](C)NC(=O)[C@H](C)NC(=O)C(C)(C)NC(=O)[C@H](CCC(=O)O)NC(=O)[C@H](CCCCNC(=O)COCCOCCNC(=O)COCCOCCNC(=O)CC[C@H](NC(=O)CCCCCCCCCCCCCCCCCCC(=O)O)C(=O)O)NC(=O)[C@H](CC(C)C)NC(=O)[C@H](Cc1ccccc1)NC(=O)[C@H](CO)NC(=O)[C@@H](NC(=O)[C@H](CC(=O)O)NC(=O)[C@H](CO)NC(=O)[C@@H](NC(=O)[C@H](Cc1ccccc1)NC(=O)[C@@H](NC(=O)CNC(=O)[C@H](CCC(=O)O)NC(=O)C(C)(C)NC(=O)[C@@H](N)Cc1c[nH]cn1)[C@@H](C)O)[C@@H](C)O)C(C)C)[C@@H](C)O)C(=O)N[C@@H](CCC(=O)O)C(=O)N[C@@H](Cc1c[nH]cn1)C(=O)N[C@@H](CC(C)C)C(=O)N[C@H](C(N)=O)C(C)C [compound 13] (H-H[Aib]EGTFTSDVSFLK([AEEA-AEEA-γGlu-C20 diacid])E[Aib]AATQRFLEHLV-NH2) | 16121 | 0.08 |  |  |  | 11130 | 0.0316 nM | 316 nM |  |  |  |
| CC(C)C[C@H](NC(=O)[C@H](Cc1ccccc1)NC(=O)[C@H](CCCNC(=N)N)NC(=O)[C@H](CCC(N)=O)NC(=O)[C@H](CCC(N)=O)NC(=O)[C@H](C)NC(=O)[C@H](C)NC(=O)[C@H](CCC(=O)O)NC(=O)[C@H](CCC(=O)O)NC(=O)[C@H](CCCCNC(=O)COCCOCCNC(=O)COCCOCCNC(=O)CC[C@H](NC(=O)CCCCCCCCCCCCCCCCCCC(=O)O)C(=O)O)NC(=O)[C@H](CC(C)C)NC(=O)[C@@H](NC(=O)[C@H](CO)NC(=O)[C@@H](NC(=O)[C@H](CC(=O)O)NC(=O)[C@H](CO)NC(=O)[C@@H](NC(=O)[C@H](Cc1ccccc1)NC(=O)[C@@H](NC(=O)CNC(=O)[C@H](CCC(=O)O)NC(=O)C(C)(C)NC(=O)[C@@H](N)Cc1c[nH]cn1)[C@@H](C)O)[C@@H](C)O)C(C)C)C(C)C)C(=O)N[C@@H](CCC(=O)O)C(=O)N[C@@H](Cc1c[nH]cn1)C(=O)N[C@@H](CC(C)C)C(=O)N[C@H](C(N)=O)C(C)C [compound 90] (H-H[Aib]EGTFTSDVSVLK([AEEA-AEEA-γGlu-C20 diacid])EEAAQQRFLEHLV-NH2) | 5668 | 0.09 |  |  |  |  |  |  | 0.0316 nM | 51322 | 1580 nM |

Further lines, results first:

| Fibril formation [1] | Turbidity (pH 7) [2] | EC50 (GLP1R; CHO-K1 cells stably overexpressing hGLP1R, read-out: hGLP1R potency (pEC50) (converted)) | SCTR EC50/GLP1R EC50 ratio (GLP1R; selectivity ratio, hSCTR vs hGLP1R) | EC50 (SCTR; CHO-K1 cells stably overexpressing hSCTR, read-out: hSCTR potency (pEC50) (converted)) | Selectivity (GLP1R) | EC50 (GLP1R; [3]) | EC50 (SCTR; [4]) | EC50 (GLP1R; [5]) | SCTR EC50/GLP1R EC50 ratio (GLP1R; [6]) | EC50 (SCTR; [7]) | SMILES |
| --- | --- | --- | --- | --- | --- | --- | --- | --- | --- | --- | --- |
| 13388 | 0.62 | 0.0398 nM | 1437 | 50.1 nM |  |  |  |  |  |  | CC[C@H](C)[C@H](NC(=O)[C@H](Cc1ccccc1)NC(=O)[C@H](CCCNC(=N)N)NC(=O)[C@H](CCC(N)=O)NC(=O)[C@H](CC(C)C)NC(=O)[C@H](C)NC(=O)[C@H](C)NC(=O)CNC(=O)[C@H](CCC(=O)O)NC(=O)[C@H](CC(C)C)NC(=O)[C@H](CC(C)C)NC(=O)CNC(=O)[C@H](CO)NC(=O)[C@H](Cc1c[nH]c2ccccc12)NC(=O)[C@H](CC(=O)O)NC(=O)[C@H](CO)NC(=O)[C@@H](NC(=O)[C@H](Cc1ccccc1)NC(=O)[C@@H](NC(=O)CNC(=O)[C@H](CCC(=O)O)NC(=O)C(C)(C)NC(=O)[C@@H](N)Cc1c[nH]cn1)[C@@H](C)O)[C@@H](C)O)C(=O)N[C@@H](CCC(N)=O)C(=O)N[C@@H](Cc1c[nH]c2ccccc12)C(=O)N[C@@H](CC(C)C)C(=O)N[C@H](C(N)=O)C(C)C [compound 187] (H-H[Aib]EGTFTSDWSGLLEGAALQRFIQWLV-NH2) |
| 4292 | 0.08 |  |  |  |  |  |  | 0.01 nM | 3608 | 39.8 nM | CC[C@H](C)[C@H](NC(=O)[C@H](CC(=O)O)NC(=O)[C@H](CO)NC(=O)[C@@H](NC(=O)[C@H](Cc1ccccc1)NC(=O)[C@@H](NC(=O)CNC(=O)[C@H](CCC(=O)O)NC(=O)C(C)(C)NC(=O)[C@@H](N)Cc1c[nH]cn1)[C@@H](C)O)[C@@H](C)O)C(=O)N[C@@H](CO)C(=O)N[C@@H](Cc1ccc(O)cc1)C(=O)N[C@@H](CC(C)C)C(=O)N[C@@H](CCCCNC(=O)COCCOCCNC(=O)COCCOCCNC(=O)CC[C@H](NC(=O)CCCCCCCCCCCCCCCCCCC(=O)O)C(=O)O)C(=O)N[C@@H](CCC(=O)O)C(=O)N[C@@H](CCC(=O)O)C(=O)N[C@@H](C)C(=O)NC(C)(C)C(=O)N[C@@H](CC(C)C)C(=O)N[C@@H](CCC(N)=O)C(=O)N[C@@H](CCCNC(=N)N)C(=O)N[C@@H](Cc1ccccc1)C(=O)N[C@@H](CC(C)C)C(=O)N[C@@H](CCC(=O)O)C(=O)N[C@@H](Cc1c[nH]cn1)C(=O)N[C@@H](CC(C)C)C(=O)N[C@H](C(N)=O)C(C)C [compound 114] (H-H[Aib]EGTFTSDISYLK([AEEA-AEEA-γGlu-C20 diacid])EEA[Aib]LQRFLEHLV-NH2) |
